Measurements reported in patent US9416128B2, “Fused heterocyclic compounds as ion channel modulators” (Gilead Sciences, Inc., priority 2013, dated 2016).

Legend:
hNaV1.2 (SCN2A) = target: T1, hNaV1.2 (SCN2A) (Homo sapiens, UniProt Q99250); experiment: Use-dependent inhibition of the CNS NaV1.2 sodium channel; assay type: cell-based; conditions: % inhibition; for inhibition at 1 µM / inhibition at 10 µM: HEK-293, 25 Hz; for inhibition at 1 µM: read-out: Nav1.2 UDB 25 Hz 1 uM; for inhibition at 10 µM: read-out: Nav1.2 UDB 25 Hz 10 uM
T1 construct: expressed in transfected cells
Description: HEK-293 cells stably expressing wild-type (WT) hNaV1.2 (SCN2A NCBI # NM_021007.2, SCN1B NCBI # NM_001037.4, SCN2B NCBI # NM_004588.2) were used to record INa. Cells are maintained with standard tissue culture procedures and stable channel expression is maintained with 800 ug/mL G418 and 3 ug/mL Puromycin in the culture medium. Unless otherwise noted, all reagents are purchased from Sigma-Aldrich (St Louis, Mo., U.S.A.).
Assays measuring Use-Dependent Block (UDB) of NaV1.2 are performed on an automated electrophysiology platform, QPatch 16X or QPatch HT (Sophion Bioscience, Copenhagen, Denmark), using the whole cell patch clamp technique to measure currents through the cell membrane. Series resistance compensation is set to 100% and series resistance and whole-cell compensation are performed automatically. Currents stored in the Sophion Bioscience Oracle database (Sophion Bioscience, Copenhagen, Denmark). Analysis is performed using QPatch Assay software and data are compiled in Excel 2010 (Microsoft, Seattle, Wash., U.S.A.). The internal (pipette) solution consists of (in mM) 105 CsF, 10 NaF, 20 CsCl, 2 EGTA, 10 HEPES, 10 Dextrose with a pH of 7.35 and osmolarity of 300 mOsmol/kg. The external (bath) solution contains in (mM): 145 NaCl, 4 KCl, 1.8 CaCl2, 1 MgCl2, 10 dextrose, 10 HEPES, with a pH of 7.35 and osmolarity of 310 mOsmol/kg. Experiments are carried out at 23-25° C.
Compound stocks are routinely made by the Gilead Sample Bank in vials to 10 mM in dimethyl sulfoxide (DMSO). In some cases, when compounds are not soluble in DMSO, they are made in 100% ethanol. Stocks are sonicated as necessary. […]
Cells are allowed to stabilize for 10 min after establishment of the whole-cell configuration before current is measured. The test compound is applied 2 times at 60 second intervals. After the second compound addition, a 200 second wait period was imposed to allow for equilibration. Leak currents are subtracted by using an online P/4 procedure and all currents are low-pass Bessel filtered at 5 kHz and digitized at […].
Results are presented as mean percentage inhibition.
Use-dependent block of NaV1.2 peak current is measured during pulse number 20 of a voltage pulse train (0 mV, 20 ms, 20 pulses, 25 Hz) from a holding potential of −120 mV.
Currents are normalized to the peak current recorded in response to the first pulse in each frequency train. The voltage protocol for UDB was performed in the absence and presence of compound and percentage inhibition was calculated with respect to the compound free condition.
Data analysis is performed using QPatch Assay Software 4.0, and Excel 2002 (Microsoft, Seattle, Wash., U.S.A.).

[1] = target: wild-type human cardiac sodium channel, hNaV 1.5 (Late INa) (Homo sapiens, UniProt Q14524); experiment: Late INa screening assay (whole cell patch clamp, QPatch, Tefluthrin-induced late current); assay type: cell-based; conditions: HEK293 hNaV1.5, 10 μM Tefluthrin; for inhibition at 1 µM: HEK293, % inhibition (percent block of late INa) at 1 uM, read-out: Nav1.5 Late INa 1 uM
Description: The cardiac late sodium current (Late INa) and peak sodium current (Peak INa) assays are performed on an automated electrophysiology platform, QPatch 16X or QPatch HT (Sophion Bioscience, Copenhagen, Denmark) using the whole cell patch clamp technique to measure currents through the cell membrane. The assay uses an HEK293 (human embryonic kidney) cell line heterologously expressing the wild-type human cardiac sodium channel, hNaV 1.5, purchased from Millipore (Billerica, Mass.). No beta subunits were coexpressed with the Na channel alpha subunit. Cells are maintained with standard tissue culture procedures and stable channel expression is maintained with 400 μg/mL Geneticin in the culture medium. Experiments are carried out at 23-25° C.
For both the Late INa and Peak INa assays, series resistance compensation is set to 100% and series resistance and whole-cell compensation are performed automatically. Currents are digitized at 25 kHz and low-pass filtered at 5 kHz and stored in the Sophion Bioscience Oracle database (Sophion Bioscience, Copenhagen, Denmark). Analysis is performed using QPatch Assay software and data are compiled in Excel 2010 (Microsoft, Seattle, Wash., U.S.A.).
Compound stocks are routinely made by the Gilead Sample Bank in vials to 10 mM in dimethyl sulfoxide (DMSO). In some cases, when compounds are not soluble in DMSO, they are made in 100% ethanol. Stocks are sonicated as necessary. The extracellular solution for screening Late INa is composed of: 140 mM NaCl, 4 mM KCl, 1.8 mM CaCl2, 1 mM MgCl2, 10 mM HEPES and 10 mM Dextrose with pH adjusted to 7.35 using NaOH. The intracellular solution contains: 105 mM CsF, 20 mM CsCl, 10 NaF, 2 mM EGTA, 10 mM HEPES and 10 mM Dextrose with pH adjusted to 7.35 with CsOH. Compounds are diluted in extracellular solution using a MicroLab Nimbus (Hamilton Robotics, Reno, Nev.) to between 0.3 and 3 μM in glass vials and transferred to glass well plates before robotic addition to the cells. The 0 mM Na extracellular solution (0Na-ECF) used at the end of each experiment for the Late INa and Peak INa assays to measure baseline current contains: 140 Choline-Cl; 4 mM KCl, 1.8 mM CaCl2; 1 mM MgCl2; 10 mM HEPES and 10 mM Dextrose with pH was adjusted to 7.35 with CsOH.
For the Late INa assay, sodium channels are activated every 10 seconds (0.1 Hz) by depolarizing the cell membrane to −20 mV for 250 milliseconds (ms) from a holding potential of −120 mV.
Compounds were tested to determine their activity in blocking the late sodium current. Late INa was generated by adding 10 μM Tefluthrin (pyrethroid) to the extracellular solution. For the purposes of the screening, Late INa is defined as the mean current between 240 ms and 265 ms during the voltage step to −20 mV. After establishing the whole cell recording configuration, Late INa activator is added to each well 4 times over a 15 minute period so that the late component of the Na current reaches a stable value. Compounds were then added (typically at 0.3 or 1 μM), in the presence of the Late INa activator, with 3 additions over the course of 5 minutes. Measurements were made at the end of exposure to the third compound addition and values were normalized to the current level when all Na^+ was removed from the extracellular solution after two additions of 0Na-ECF.
Results are reported as percent block of late INa and results were analyzed by incorporating rundown correction for the Late INa.

Chain of wild-type human cardiac sodium channel, hNaV 1.5 (Late INa) (Q14524 whole entry): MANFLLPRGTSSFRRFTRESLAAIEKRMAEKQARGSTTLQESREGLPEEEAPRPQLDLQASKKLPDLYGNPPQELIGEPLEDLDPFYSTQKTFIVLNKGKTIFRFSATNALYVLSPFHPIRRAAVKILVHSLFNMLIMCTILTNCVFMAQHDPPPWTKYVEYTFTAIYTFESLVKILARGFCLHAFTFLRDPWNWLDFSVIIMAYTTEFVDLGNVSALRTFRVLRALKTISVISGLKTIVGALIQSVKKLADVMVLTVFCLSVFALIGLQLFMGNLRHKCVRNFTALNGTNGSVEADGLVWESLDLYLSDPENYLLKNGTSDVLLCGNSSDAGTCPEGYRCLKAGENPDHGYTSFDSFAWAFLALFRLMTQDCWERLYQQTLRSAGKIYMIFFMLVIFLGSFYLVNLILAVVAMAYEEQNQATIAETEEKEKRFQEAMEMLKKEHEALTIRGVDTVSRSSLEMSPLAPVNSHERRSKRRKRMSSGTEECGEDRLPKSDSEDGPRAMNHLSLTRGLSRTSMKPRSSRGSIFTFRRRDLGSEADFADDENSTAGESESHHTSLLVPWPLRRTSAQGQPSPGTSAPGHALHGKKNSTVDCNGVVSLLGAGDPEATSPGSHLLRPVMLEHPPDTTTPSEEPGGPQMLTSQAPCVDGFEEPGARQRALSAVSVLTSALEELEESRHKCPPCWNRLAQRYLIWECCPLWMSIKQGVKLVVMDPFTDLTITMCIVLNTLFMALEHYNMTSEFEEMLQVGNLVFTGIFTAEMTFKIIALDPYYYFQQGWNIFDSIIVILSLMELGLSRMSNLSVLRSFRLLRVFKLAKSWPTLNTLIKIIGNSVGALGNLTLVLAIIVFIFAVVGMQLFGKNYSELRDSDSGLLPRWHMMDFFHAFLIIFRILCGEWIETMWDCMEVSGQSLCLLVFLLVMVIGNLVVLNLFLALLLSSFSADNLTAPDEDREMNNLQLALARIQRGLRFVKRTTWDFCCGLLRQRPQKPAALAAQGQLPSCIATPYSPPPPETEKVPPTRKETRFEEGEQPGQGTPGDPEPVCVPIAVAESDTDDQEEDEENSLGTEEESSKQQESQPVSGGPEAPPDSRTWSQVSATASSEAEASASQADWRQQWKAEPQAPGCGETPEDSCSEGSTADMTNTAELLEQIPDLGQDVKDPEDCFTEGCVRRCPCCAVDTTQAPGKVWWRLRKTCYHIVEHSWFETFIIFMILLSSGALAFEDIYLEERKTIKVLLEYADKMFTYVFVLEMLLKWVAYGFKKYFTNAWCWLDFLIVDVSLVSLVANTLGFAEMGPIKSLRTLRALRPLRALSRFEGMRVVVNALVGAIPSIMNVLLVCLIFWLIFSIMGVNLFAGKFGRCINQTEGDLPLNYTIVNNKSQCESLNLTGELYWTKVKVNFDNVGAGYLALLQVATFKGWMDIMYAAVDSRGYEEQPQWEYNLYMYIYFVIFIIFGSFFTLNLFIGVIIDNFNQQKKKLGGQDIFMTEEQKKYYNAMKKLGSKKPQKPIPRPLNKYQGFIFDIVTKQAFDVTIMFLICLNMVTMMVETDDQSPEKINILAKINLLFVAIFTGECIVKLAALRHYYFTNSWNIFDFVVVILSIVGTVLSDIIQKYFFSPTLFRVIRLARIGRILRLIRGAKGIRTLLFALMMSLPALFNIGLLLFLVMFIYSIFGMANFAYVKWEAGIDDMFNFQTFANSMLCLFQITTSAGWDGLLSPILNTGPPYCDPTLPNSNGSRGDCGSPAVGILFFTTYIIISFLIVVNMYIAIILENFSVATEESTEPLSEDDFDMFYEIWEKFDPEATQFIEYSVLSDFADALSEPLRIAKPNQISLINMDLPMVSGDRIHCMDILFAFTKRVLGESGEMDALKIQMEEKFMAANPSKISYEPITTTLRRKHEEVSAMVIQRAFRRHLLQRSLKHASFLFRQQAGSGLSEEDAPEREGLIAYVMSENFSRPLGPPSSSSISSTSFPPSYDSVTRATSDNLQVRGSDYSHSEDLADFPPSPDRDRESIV
T1 sequence (Q99250 whole entry): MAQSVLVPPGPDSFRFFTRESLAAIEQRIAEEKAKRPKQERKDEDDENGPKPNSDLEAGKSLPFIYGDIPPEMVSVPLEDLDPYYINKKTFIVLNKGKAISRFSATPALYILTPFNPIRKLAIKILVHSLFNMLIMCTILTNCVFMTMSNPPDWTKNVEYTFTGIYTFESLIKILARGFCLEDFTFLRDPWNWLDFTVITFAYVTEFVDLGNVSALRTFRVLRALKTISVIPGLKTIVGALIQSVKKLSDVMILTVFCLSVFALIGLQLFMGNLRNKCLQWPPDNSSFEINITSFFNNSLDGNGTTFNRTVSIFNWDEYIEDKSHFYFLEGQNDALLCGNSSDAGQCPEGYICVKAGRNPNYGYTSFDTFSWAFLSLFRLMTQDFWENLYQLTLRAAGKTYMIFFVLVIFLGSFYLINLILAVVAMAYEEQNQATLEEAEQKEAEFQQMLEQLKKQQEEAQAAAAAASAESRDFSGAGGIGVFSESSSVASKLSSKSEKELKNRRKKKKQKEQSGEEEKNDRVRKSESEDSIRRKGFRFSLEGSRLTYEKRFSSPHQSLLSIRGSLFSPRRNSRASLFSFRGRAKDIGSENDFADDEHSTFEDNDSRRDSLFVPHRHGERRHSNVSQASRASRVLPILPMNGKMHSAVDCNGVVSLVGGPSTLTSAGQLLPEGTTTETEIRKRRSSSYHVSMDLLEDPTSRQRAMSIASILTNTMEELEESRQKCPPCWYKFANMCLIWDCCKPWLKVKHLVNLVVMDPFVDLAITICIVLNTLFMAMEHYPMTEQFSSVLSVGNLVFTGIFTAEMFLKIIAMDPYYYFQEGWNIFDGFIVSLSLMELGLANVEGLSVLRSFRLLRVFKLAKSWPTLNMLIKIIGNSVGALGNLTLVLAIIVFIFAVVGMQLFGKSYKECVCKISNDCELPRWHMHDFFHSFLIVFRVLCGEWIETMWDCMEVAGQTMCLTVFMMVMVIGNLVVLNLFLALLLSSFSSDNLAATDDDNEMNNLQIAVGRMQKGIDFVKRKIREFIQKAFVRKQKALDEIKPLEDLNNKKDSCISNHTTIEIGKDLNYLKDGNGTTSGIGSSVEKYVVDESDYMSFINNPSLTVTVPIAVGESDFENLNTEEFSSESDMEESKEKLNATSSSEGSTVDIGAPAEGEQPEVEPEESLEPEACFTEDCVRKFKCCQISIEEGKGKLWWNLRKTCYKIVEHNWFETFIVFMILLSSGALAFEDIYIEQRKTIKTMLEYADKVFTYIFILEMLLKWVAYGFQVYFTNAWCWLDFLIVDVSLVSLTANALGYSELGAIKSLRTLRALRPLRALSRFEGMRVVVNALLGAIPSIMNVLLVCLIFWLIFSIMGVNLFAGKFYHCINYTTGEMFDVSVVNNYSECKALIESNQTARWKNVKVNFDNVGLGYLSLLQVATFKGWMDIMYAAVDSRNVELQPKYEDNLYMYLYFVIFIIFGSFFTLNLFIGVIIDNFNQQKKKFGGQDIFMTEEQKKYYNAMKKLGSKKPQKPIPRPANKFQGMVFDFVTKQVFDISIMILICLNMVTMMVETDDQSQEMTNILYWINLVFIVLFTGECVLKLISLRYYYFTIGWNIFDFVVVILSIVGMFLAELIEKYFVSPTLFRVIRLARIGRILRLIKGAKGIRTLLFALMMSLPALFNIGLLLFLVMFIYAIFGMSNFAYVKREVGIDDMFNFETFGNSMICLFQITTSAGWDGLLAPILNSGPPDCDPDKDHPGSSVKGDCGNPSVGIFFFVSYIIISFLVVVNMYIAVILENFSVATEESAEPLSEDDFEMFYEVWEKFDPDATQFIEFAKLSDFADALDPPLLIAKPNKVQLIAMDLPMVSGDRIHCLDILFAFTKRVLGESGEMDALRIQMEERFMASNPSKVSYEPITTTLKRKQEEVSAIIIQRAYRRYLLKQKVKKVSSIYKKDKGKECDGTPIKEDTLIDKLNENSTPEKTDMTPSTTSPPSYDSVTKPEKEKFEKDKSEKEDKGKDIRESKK
T1 sequence (Q07699 19-218 partner): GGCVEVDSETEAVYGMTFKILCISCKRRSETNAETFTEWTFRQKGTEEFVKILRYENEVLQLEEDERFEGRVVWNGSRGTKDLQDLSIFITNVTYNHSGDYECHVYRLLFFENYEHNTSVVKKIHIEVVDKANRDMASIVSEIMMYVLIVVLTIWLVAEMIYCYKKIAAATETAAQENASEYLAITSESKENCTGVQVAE
T1 sequence (O60939 30-215 partner): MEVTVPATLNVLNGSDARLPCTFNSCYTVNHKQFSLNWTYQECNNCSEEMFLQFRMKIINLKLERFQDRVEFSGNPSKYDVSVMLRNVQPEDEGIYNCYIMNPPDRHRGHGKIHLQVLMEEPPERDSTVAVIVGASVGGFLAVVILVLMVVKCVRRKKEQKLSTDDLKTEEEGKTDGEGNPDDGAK

SMILES	Nav1.2 UDB 25 Hz 1 uM (hNaV1.2 (SCN2A); use-dependent block at 1 uM)	Nav1.2 UDB 25 Hz 10 uM (hNaV1.2 (SCN2A); use-dependent block at 10 uM)	inhibition at 1 µM (hNaV1.2 (SCN2A); use-dependent block at 1 uM)	inhibition at 10 µM (hNaV1.2 (SCN2A); use-dependent block at 10 uM)	inhibition at 1 µM [1]	Nav1.5 Late INa 1 uM ([1]; % inhibition (percent block of late INa) at 1 uM)
COc1cc(OC(F)(F)F)ccc1-c1ccc2c(c1)CN(Cc1ncccn1)C(=O)O2 [Example 1, 6-(2-methoxy-4-(trifluoromethoxy)phenyl)-3-(pyrimidin-2-ylmethyl)-3,4-dihydro-2H-benzo[e][1,3]oxazin-2-one]	7.9%	37.0%	–	–	–	–
O=C1Oc2ccc(-c3ccc(C(F)(F)F)cc3)cc2CN1Cc1ccncc1 [Example 2, 3-(pyridin-4-ylmethyl)-6-(4-(trifluoromethyl)phenyl)-3,4-dihydro-2H-benzo[e][1,3]oxazin-2-one]	–	–	19.8%	28.1%	41.5%	–
Cc1cc(-c2ccc3c(c2)CN(Cc2ncccn2)C(=O)O3)ccc1OC(F)(F)F [Example 5, 6-(3-methyl-4-(trifluoromethoxy)phenyl)-3-(pyrimidin-2-ylmethyl)-3,4-dihydro-2H-benzo[e][1,3]oxazin-2-one]	–	–	< 5%	24.9%	37.3%	–
O=C1Oc2ccc(-c3ccc(Cl)c(F)c3)cc2CN1Cc1ncccn1 [Example 6, 6-(4-chloro-3-fluorophenyl)-3-(pyrimidin-2-ylmethyl)-3,4-dihydro-2H-benzo[e][1,3]oxazin-2-one]	–	–	–	–	43.3%	–
O=C1Oc2ccc(-c3ccc(OC(F)(F)F)cc3F)cc2CN1Cc1ncccn1 [Example 7, 6-(2-fluoro-4-(trifluoromethoxy)phenyl)-3-(pyrimidin-2-ylmethyl)-3,4-dihydro-2H-benzo[e][1,3]oxazin-2-one]	–	–	18%	56.3%	42.3%	–
Cc1cc(OC(F)(F)F)ccc1-c1ccc2c(c1)CN(Cc1ncccn1)C(=O)O2 [Example 8, 6-(2-methyl-4-(trifluoromethoxy)phenyl)-3-(pyrimidin-2-ylmethyl)-3,4-dihydro-2H-benzo[e][1,3]oxazin-2-one]	–	–	< 5%	11%	52.7%	–
COc1cc(OC(F)(F)F)ccc1-c1ccc2c(c1)CN(Cc1ncccn1)C(=O)O2 [Example 9, 6-(2-methoxy-4-(trifluoromethoxy)phenyl)-3-(pyrimidin-2-ylmethyl)-3,4-dihydro-2H-benzo[e][1,3]oxazin-2-one]	–	–	7.9%	37%	–	45.0%
O=C1Oc2ccc(-c3ccc(OC(F)(F)F)c(F)c3)cc2CN1Cc1ncccn1 [Example 10, 6-(3-fluoro-4-(trifluoromethoxy)phenyl)-3-(pyrimidin-2-ylmethyl)-3,4-dihydro-2H-benzo[e][1,3]oxazin-2-one]	–	–	30.2%	75%	57.2%	–
CC1c2cc(-c3ccc(Cl)c(F)c3)ccc2OC(=O)N1Cc1ncccn1 (centres unmarked) [Example 11, 6-(4-chloro-3-fluorophenyl)-4-methyl-3-(pyrimidin-2-ylmethyl)-3,4-dihydro-2H-benzo[e][1,3]oxazin-2-one]	–	–	29.9%	77.2%	32.5%	–
Cc1cnc(CN2Cc3cc(-c4ccc(OC(F)(F)F)cc4)ccc3OC2=O)nc1 [Example 12, 3-((5-methylpyrimidin-2-yl)methyl)-6-(4-(trifluoromethoxy)phenyl)-3,4-dihydro-2H-benzo[e][1,3]oxazin-2-one]	–	–	15.4%	68.8%	50.5%	–
Cc1cnc(CN2Cc3cc(-c4ccc(C(F)(F)F)cc4)ccc3OC2=O)nc1 [Example 13, 3-((5-methylpyrimidin-2-yl)methyl)-6-(4-(trifluoromethyl)phenyl)-3,4-dihydro-2H-benzo[e][1,3]oxazin-2-one]	–	–	21.4%	63.4%	49.6%	–
Cc1cnc(CN2Cc3cc(-c4ccc(OC(F)(F)F)cc4F)ccc3OC2=O)nc1 [Example 14, 6-(2-fluoro-4-(trifluoromethoxy)phenyl)-3-((5-methylpyrimidin-2-yl)methyl)-3,4-dihydro-2H-benzo[e][1,3]oxazin-2-one]	–	–	< 5%	59.9%	39.3%	–
O=C1Oc2ccc(-c3ccc(OC(F)(F)F)cc3)cc2CN1CCc1ncccn1 [Example 16, 3-(2-(pyrimidin-2-yl)ethyl)-6-(4-(trifluoromethoxy)phenyl)-3,4-dihydro-2H-benzo[e][1,3]oxazin-2-one]	–	–	23.4%	52.9%	48.5%	–
O=C1Oc2ccc(-c3ccc(C(F)(F)F)cc3)cc2CN1CCc1ncccn1 [Example 17, 3-(2-(pyrimidin-2-yl)ethyl)-6-(4-(trifluoromethyl)phenyl)-3,4-dihydro-2H-benzo[e][1,3]oxazin-2-one]	–	–	34.2%	56.6%	45%	–
CC1c2cc(-c3ccc(OC(F)(F)F)cc3)ccc2OC(=O)N1Cc1ncccn1 (centres unmarked) [Example 48, 4-methyl-3-(pyrimidin-2-ylmethyl)-6-(4-(trifluoromethoxy)phenyl)-3,4-dihydro-2H-benzo[e][1,3]oxazin-2-one]	–	–	–	–	53.2%	–
CC1c2cc(-c3cccc(OC(F)(F)F)c3)ccc2OC(=O)N1Cc1ncccn1 (centres unmarked) [Example 50, 4-methyl-3-(pyrimidin-2-ylmethyl)-6-(3-(trifluoromethoxy)phenyl)-3,4-dihydro-2H-benzo[e][1,3]oxazin-2-one]	–	–	–	–	34.9%	–
